Consider 12 compounds from patent US9670230B2, “Heteroaryl compounds and methods of use thereof” (SUNOVION PHARMACEUTICALS INC., priority 2012, dated 2017).

Each structure is given as a SMILES string. pIC50: −log10 of the molar value. Some results are limits rather than exact numbers.

This experiment deals with recombinant human PDE-10 enzyme (Homo sapiens (Human), UniProt Q9Y233). In words: Molecular Devices IMAP PDE Fluorescence Polarization assay, human PDE-10 inhibition (enzyme assay IC50). The class given is biochemical. Conditions: recombinant human PDE-10 expressed in baculoviral system; Fluorescein-labeled cAMP/cGMP substrate; 40-minute incubation at 37° C. As to the method: In one embodiment, the compounds provided herein were assayed for their ability to inhibit human PDE-10A. In one embodiment, the activities of the compounds were determined using the Molecular Devices IMAP PDE Fluorescence Polarization assay using recombinant human PDE-10 enzyme expressed in a baculoviral system. Briefly, 10 μL of a compound (0.2 nM-20 μM) was added to either a 96-well half area black plate or a 384-well black plate along with 10 μL of Fluorescein-labeled cAMP/cGMP substrate as per manufacturer's instructions and 10 μL of PDE enzyme (activity 0.1 U). Following a 40-minute incubation at 37° C., 60 μL of IMAP binding reagent was added. The plate was then read on a Perkin Elmer Victor (480-535 nm). The data was analyzed using Prism Software (GraphPad Inc, San Diego, Calif.).
recombinant human PDE-10 enzyme, sequence (Q9Y233 whole entry): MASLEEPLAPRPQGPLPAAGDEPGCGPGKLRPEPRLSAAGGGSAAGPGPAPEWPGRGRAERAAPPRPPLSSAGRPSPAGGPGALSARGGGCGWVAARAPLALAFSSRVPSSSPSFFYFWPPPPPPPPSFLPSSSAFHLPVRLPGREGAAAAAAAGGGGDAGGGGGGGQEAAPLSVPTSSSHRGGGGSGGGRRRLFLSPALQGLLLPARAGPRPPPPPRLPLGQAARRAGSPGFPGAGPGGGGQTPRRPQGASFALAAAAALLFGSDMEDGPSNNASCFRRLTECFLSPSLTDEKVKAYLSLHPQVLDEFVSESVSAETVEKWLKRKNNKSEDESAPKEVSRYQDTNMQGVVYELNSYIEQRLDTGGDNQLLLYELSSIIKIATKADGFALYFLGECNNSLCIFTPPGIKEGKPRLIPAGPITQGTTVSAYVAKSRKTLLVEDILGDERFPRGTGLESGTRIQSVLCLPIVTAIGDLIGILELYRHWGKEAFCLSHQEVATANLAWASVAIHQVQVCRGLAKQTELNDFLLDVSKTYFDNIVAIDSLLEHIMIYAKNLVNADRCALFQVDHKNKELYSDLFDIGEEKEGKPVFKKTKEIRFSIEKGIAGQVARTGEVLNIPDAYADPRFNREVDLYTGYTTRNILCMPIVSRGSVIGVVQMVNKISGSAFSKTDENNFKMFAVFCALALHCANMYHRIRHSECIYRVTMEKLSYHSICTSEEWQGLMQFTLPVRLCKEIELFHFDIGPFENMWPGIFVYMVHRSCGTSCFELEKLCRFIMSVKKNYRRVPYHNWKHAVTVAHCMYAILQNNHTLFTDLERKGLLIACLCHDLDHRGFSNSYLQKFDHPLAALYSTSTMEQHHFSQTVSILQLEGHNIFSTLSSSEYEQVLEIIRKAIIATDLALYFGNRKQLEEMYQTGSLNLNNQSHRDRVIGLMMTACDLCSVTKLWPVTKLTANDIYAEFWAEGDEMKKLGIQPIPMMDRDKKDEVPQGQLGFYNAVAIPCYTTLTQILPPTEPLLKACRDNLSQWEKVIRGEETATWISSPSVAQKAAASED

For the compound `Cc1ncc(C)n2nc(CCc3ccc4c(n3)NC(C)CO4)nc12` (stereo not drawn) [Compound 6, 6-(2-(5,8-dimethyl-[1,2,4]triazolo[1,5-a]pyrazin-2-yl)ethyl)-3-methyl-3,4-dihydro-2H-pyrido[3,2-b][1,4]oxazine], the pIC50 was 7.00 to 8.00.

For `Cc1ncc(C)n2nc(CCc3ccc4c(n3)N[C@H](C)CC4)nc12` [Compound 4, (R)-7-(2-(5,8-dimethyl-[1,2,4]triazolo[1,5-a]pyrazin-2-yl)ethyl)-2-methyl-1,2,3,4-tetrahydro-1,8-naphthyridine], the pIC50 is 7.00 to 8.00.

Consider `Cc1ncc(C)n2nc(CCc3ccc4c(n3)NC(C)CC4)nc12` (stereo not drawn) [Compound 3, 7-(2-(5,8-dimethyl-[1,2,4]triazolo[1,5-a]pyrazin-2-yl)ethyl)-2-methyl-1,2,3,4-tetrahydro-1,8-naphthyridine], for which the pIC50 is 7.00 to 8.00. Consider `COc1ccc2ccc(CCc3nc4c(C)ncc(C)n4n3)nc2c1` [Compound 2, 2-(2-(5,8-dimethyl-[1,2,4]triazolo[1,5-a]pyrazin-2-yl)ethyl)-7-methoxyquinoline], for which the pIC50 is no less than 8.00. Then `Cc1ncc(C)n2nc(CCc3ccc4c(n3)N[C@H](C)CO4)nc12` [Compound 7, (R)-6-(2-(5,8-dimethyl-[1,2,4]triazolo[1,5-a]pyrazin-2-yl)ethyl)-3-methyl-3,4-dihydro-2H-pyrido[3,2-b][1,4]oxazine], with 7.00 to 8.00. Consider `Cc1ncc(C)n2nc(CCc3ccc4c(n3)N[C@@H](C)CC4)nc12` [Compound 5, (S)-7-(2-(5,8-dimethyl-[1,2,4]triazolo[1,5-a]pyrazin-2-yl)ethyl)-2-methyl-1,2,3,4-tetrahydro-1,8-naphthyridine], for which the pIC50 was 7.00 to 8.00.

Regarding `Cc1ncc(C)n2nc(CCc3ccc4c(n3)N[C@@H](C)CO4)nc12` [Compound 8, (S)-6-(2-(5,8-dimethyl-[1,2,4]triazolo[1,5-a]pyrazin-2-yl)ethyl)-3-methyl-3,4-dihydro-2H-pyrido[3,2-b][1,4]oxazine], the pIC50 is 6.30 to 7.00.

Take `Cc1ccc2ccc(CCc3nc4c(C)ncc(C)n4n3)nc2c1` [Compound 1, 2-(2-(5,8-dimethyl-[1,2,4]triazolo[1,5-a]pyrazin-2-yl)ethyl)-7-methylquinoline]: the pIC50 was no less than 8.00. In the case of `Cc1ncc(C)n2nc(CCc3ccc4c(n3)N(C)C(C)CO4)nc12` (stereo not drawn) [Compound 10, 6-(2-(5,8-dimethyl-[1,2,4]triazolo[1,5-a]pyrazin-2-yl)ethyl)-3,4-dimethyl-3,4-dihydro-2H-pyrido[3,2-b][1,4]oxazine], the pIC50 is 6.30 to 7.00. The figure for `CCC1COc2ccc(CCc3nc4c(C)ncc(C)n4n3)nc2N1C` (stereo not drawn) [Compound 11, 6-(2-(5,8-dimethyl-[1,2,4]triazolo[1,5-a]pyrazin-2-yl)ethyl)-3-ethyl-4-methyl-3,4-dihydro-2H-pyrido[3,2-b][1,4]oxazine] is less than 6.30. Consider `Cc1ncc(C)n2nc(CCc3ccc4c(n3)NC(C)(C)CO4)nc12` [Compound 12, 6-(2-(5,8-dimethyl-[1,2,4]triazolo[1,5-a]pyrazin-2-yl)ethyl)-3,3-dimethyl-3,4-dihydro-2H-pyrido[3,2-b][1,4]oxazine], for which the pIC50 was 6.30 to 7.00.

On to `CCC1COc2ccc(CCc3nc4c(C)ncc(C)n4n3)nc2N1` (stereo not drawn) [Compound 9, 6-(2-(5,8-dimethyl-[1,2,4]triazolo[1,5-a]pyrazin-2-yl)ethyl)-3-ethyl-3,4-dihydro-2H-pyrido[3,2-b][1,4]oxazine], for which the pIC50 was 7.00 to 8.00.
